Assay results published in ChEMBL document CHEMBL1201862, “PubChem BioAssay data set” (2004).
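A five-concentration, 48-hour dose response in 96-well plates underlies each endpoint, interpolated linearly between surrounding concentrations. GI50: concentration for 50% inhibition of growth.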 Calls of active or inactive are those of the source. Rule as the data show it: active = GI50 up to about 1.1 µM and inactive = higher.

Experiments:
Assay in all cases: NCI anticancer screen, dose series, 48 h
MDA-MB-435 = tested on: MDA-MB-435
SK-OV-3 = tested on: SK-OV-3
Hs-578T = tested on: Hs-578T
MDA-N = tested on: MDA-N
NCI/ADR-RES = tested on: NCI/ADR-RES
MCF7 = tested on: MCF7
NCI-H460 = tested on: NCI-H460
786-0 = tested on: 786-0
SR = tested on: SR
HCC 2998 = tested on: HCC 2998
SNB-19 = tested on: SNB-19
HOP-62 = tested on: HOP-62
PC-3 = tested on: PC-3
NCI-H226 = tested on: NCI-H226
MOLT-4 = tested on: MOLT-4
U-251 = tested on: U-251
NCI-H23 = tested on: NCI-H23
UACC-257 = tested on: UACC-257
OVCAR-4 = tested on: OVCAR-4
OVCAR-5 = tested on: OVCAR-5

Measured: GI50

NC(=O)c1cc2ccc(O)cc2o/c1=N/c1ccccc1
inactive: MDA-MB-435 23.3 µM | SK-OV-3 34.5 µM | Hs-578T 64.3 µM | MDA-N 22.5 µM | NCI/ADR-RES 23.8 µM | MCF7 31.2 µM | NCI-H460 25.9 µM | 786-0 30.3 µM | SR 16.1 µM | HCC 2998 22.2 µM | SNB-19 36 µM | HOP-62 40.7 µM | PC-3 37.7 µM | NCI-H226 17.1 µM | MOLT-4 29 µM | U-251 34.7 µM | NCI-H23 18.1 µM | UACC-257 39.3 µM | OVCAR-4 42.3 µM | OVCAR-5 67.9 µM

CC(C)SC(=S)Sc1c(Cl)c(Cl)nc(Cl)c1Cl
inactive: MDA-MB-435 7.38 µM | SK-OV-3 17.8 µM | Hs-578T 18.6 µM | MDA-N 5.27 µM | NCI/ADR-RES 20.3 µM | MCF7 4.06 µM | NCI-H460 17.1 µM | 786-0 2.33 µM | SR 2.83 µM | HCC 2998 3.31 µM | SNB-19 7.55 µM | HOP-62 5.85 µM | PC-3 4.93 µM | NCI-H226 24.9 µM | MOLT-4 2.65 µM | U-251 3.98 µM | NCI-H23 12.3 µM | UACC-257 3.52 µM | OVCAR-4 13.6 µM | OVCAR-5 16.3 µM

O=P(NC12CC3CC(CC(C3)C1)C2)(N1CC1)N1CC1
inactive: MDA-MB-435 > 100 µM | SK-OV-3 > 55.5 µM | Hs-578T 89.3 µM | MDA-N > 100 µM | NCI/ADR-RES 53 µM | MCF7 9.71 µM | NCI-H460 2.46 µM | 786-0 23.2 µM | SR 2.05 µM | HCC 2998 > 100 µM | SNB-19 17.1 µM | HOP-62 12.8 µM | PC-3 > 100 µM | NCI-H226 41.6 µM | MOLT-4 3.3 µM | U-251 27.4 µM | NCI-H23 6.05 µM | UACC-257 > 100 µM | OVCAR-4 > 100 µM | OVCAR-5 > 100 µM

Cc1nc(-n2nc(-c3ccccc3)cc2-c2ccccc2)sc1C(=O)/C=C/c1ccc([N+](=O)[O-])cc1
inactive: MDA-MB-435 16 µM | SK-OV-3 > 65.8 µM | Hs-578T 27.7 µM | MDA-N 19.2 µM | NCI/ADR-RES 17.2 µM | MCF7 5.74 µM | NCI-H460 25.2 µM | 786-0 13 µM | SR 2.86 µM | HCC 2998 16.2 µM | SNB-19 24.2 µM | HOP-62 20.1 µM | PC-3 17.2 µM | NCI-H226 57.8 µM | MOLT-4 10.9 µM | U-251 16 µM | NCI-H23 18.4 µM | UACC-257 34.5 µM | OVCAR-4 34.1 µM | OVCAR-5 > 59.4 µM

COc1ccc(/N=N/C(=N\c2ccc(F)cc2)c2ccc(N(CCC#N)CCC#N)cc2)cc1
inactive: MDA-MB-435 39.2 µM | SK-OV-3 58.5 µM | Hs-578T 27.4 µM | MDA-N 29.9 µM | NCI/ADR-RES > 100 µM | MCF7 28.4 µM | NCI-H460 20.2 µM | 786-0 42.3 µM | SR 21.7 µM | HCC 2998 19.1 µM | SNB-19 31.9 µM | HOP-62 41.8 µM | PC-3 24.1 µM | NCI-H226 > 100 µM | MOLT-4 31.2 µM | U-251 13.9 µM | NCI-H23 17.4 µM | UACC-257 19 µM | OVCAR-4 40.9 µM | OVCAR-5 52.1 µM

COc1cccc(/N=N/C(=N/NC(=O)c2cc(Cl)ccc2O)c2ccc(N(CCC#N)CCC#N)cc2C)c1
inactive: MDA-MB-435 64.4 µM | SK-OV-3 52 µM | Hs-578T 33.2 µM | MDA-N 41.1 µM | NCI/ADR-RES 49 µM | MCF7 7.8 µM | NCI-H460 32.7 µM | 786-0 43.3 µM | SR 21.2 µM | HCC 2998 23.6 µM | SNB-19 53.5 µM | HOP-62 66.5 µM | PC-3 23.2 µM | NCI-H226 26.2 µM | MOLT-4 19.1 µM | U-251 38.3 µM | NCI-H23 35 µM | UACC-257 10.1 µM | OVCAR-4 19.8 µM | OVCAR-5 > 100 µM

CN(/N=C/c1ccccn1)C1=NCCCCN1
inactive: MDA-MB-435 > 100 µM | SK-OV-3 > 100 µM | Hs-578T > 100 µM | MDA-N > 100 µM | NCI/ADR-RES > 100 µM | MCF7 > 100 µM | NCI-H460 > 100 µM | 786-0 > 100 µM | SR > 100 µM | HCC 2998 > 100 µM | SNB-19 > 100 µM | HOP-62 > 100 µM | PC-3 > 100 µM | NCI-H226 > 100 µM | MOLT-4 > 100 µM | U-251 > 100 µM | NCI-H23 > 100 µM | UACC-257 > 100 µM | OVCAR-4 > 100 µM | OVCAR-5 > 100 µM

CC(C)(C)OC(=O)[C@@H]1CCC(=O)N1C1(c2ccccc2)c2ccccc2-c2ccccc21
inactive: MDA-MB-435 30.1 µM | SK-OV-3 > 100 µM | Hs-578T 33.5 µM | MDA-N 29.4 µM | NCI/ADR-RES > 100 µM | MCF7 67.6 µM | NCI-H460 30.5 µM | 786-0 38.8 µM | SR 38.5 µM | HCC 2998 52.8 µM | SNB-19 > 100 µM | HOP-62 58.5 µM | PC-3 29.4 µM | NCI-H226 > 100 µM | MOLT-4 25.9 µM | U-251 25.7 µM | NCI-H23 62.4 µM | UACC-257 77.1 µM | OVCAR-4 28.6 µM | OVCAR-5 93.1 µM

CCN(C(=O)N[C@H](C(=O)N[C@@H](C)C(=O)OC)C(C)C)c1ccccc1
inactive: MDA-MB-435 21.2 µM | SK-OV-3 > 100 µM | Hs-578T 32.9 µM | MDA-N 34.2 µM | NCI/ADR-RES > 100 µM | MCF7 31 µM | NCI-H460 24 µM | 786-0 27.3 µM | SR 31.2 µM | HCC 2998 17.4 µM | SNB-19 64.3 µM | HOP-62 > 100 µM | PC-3 39.1 µM | NCI-H226 > 100 µM | MOLT-4 65.2 µM | U-251 28.9 µM | NCI-H23 64.3 µM | UACC-257 20 µM | OVCAR-4 65 µM | OVCAR-5 > 100 µM

CC(=O)N1C(C(=O)NC2CCCCC2)CSC1c1ccccc1 (stereo not given)
inactive: MDA-MB-435 > 100 µM | SK-OV-3 > 100 µM | Hs-578T > 100 µM | MDA-N > 100 µM | NCI/ADR-RES > 100 µM | MCF7 > 100 µM | NCI-H460 > 100 µM | 786-0 > 100 µM | SR > 100 µM | HCC 2998 > 100 µM | SNB-19 > 100 µM | HOP-62 > 100 µM | PC-3 > 100 µM | NCI-H226 51.6 µM | MOLT-4 > 100 µM | U-251 > 100 µM | NCI-H23 > 100 µM | UACC-257 > 100 µM | OVCAR-4 > 100 µM | OVCAR-5 > 100 µM
